A word on the IC50: it is the concentration that inhibits the measured activity by half.

For 24 compounds, IC50 results are on record in patent US8962608B2, “Cycloalkylnitrile pyrazole carboxamides as janus kinase inhibitors” (Merck Sharp & Dohme Corp., priority 2011, dated 2015).

Molecules are shown by their SMILES.
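Further: biochemical assay with HTRF read-out.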

JAK1 (recombinant purified GST-tagged catalytic domain), sequence (P23458 875-1153): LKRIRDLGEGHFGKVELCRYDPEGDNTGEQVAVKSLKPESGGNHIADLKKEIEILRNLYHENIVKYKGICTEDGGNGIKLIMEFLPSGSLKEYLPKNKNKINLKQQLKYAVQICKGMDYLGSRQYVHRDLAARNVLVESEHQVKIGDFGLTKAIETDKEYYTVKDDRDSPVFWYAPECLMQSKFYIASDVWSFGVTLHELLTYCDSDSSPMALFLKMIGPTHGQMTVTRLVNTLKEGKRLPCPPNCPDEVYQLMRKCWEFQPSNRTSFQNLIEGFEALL

The experiment addresses JAK1 (recombinant purified GST-tagged catalytic domain) (Homo sapiens (Human), UniProt P23458). Nature of the experiment: biochemical.
In the case of `N#C[C@H]1C[C@H](NCC(F)(F)F)CC[C@@H]1n1cc(C(N)=O)c(Nc2ccc(Cl)cc2)n1` (single isomer, unassigned) [Example 28-225, 3-[(4-chlorophenyl)amino]-1-{(1S,2S,4R or 1R,2R,4S)-2-cyano-4-[(2,2,2-trifluoroethyl)amino]cyclohexyl}-1H-pyrazole-4-carboxamide], the IC50 came to 12 nM. With `CN([C@H]1CCC(n2cc(C(N)=O)c(Nc3ccc(Cl)cc3)n2)[C@@H](C#N)C1)C(C)(C)C1CC1` (single isomer, unassigned) [Example 28-229, 3-[(4-chlorophenyl)amino]-1-{(1S,2S,4S or 1R,2R,4R)-2-cyano-4-[(1-cyclopropyl-1-methylethyl)(methyl)amino]cyclo-hexyl}-1H-pyrazole-4-carboxamide], the IC50 was 1 nM.

`COCC(C)(C)N[C@H]1CCC(n2cc(C(N)=O)c(Nc3ccccc3)n2)[C@@H](C#N)C1` (single isomer, unassigned) [Example 28-231, 1-{(1S,2S,4S or 1R,2R,4R)-2-cyano-4-[(2-methoxy-1,1-dimethylethyl)amino]cyclo-hexyl}-3-(phenylamino)-1H-pyrazole-4-carboxamide]: the IC50 came out at 16 nM. Consider `COCC(C)(C)N(C)[C@H]1CCC(n2cc(C(N)=O)c(Nc3ccc(Cl)cc3)n2)[C@@H](C#N)C1` (single isomer, unassigned) [Example 28-234, 3-[(4-chlorophenyl)amino]-1-{(1S,2S,4S or 1R,2R,4R)-2-cyano-4-[(2-methoxy-1,1-dimethylethyl)(methyl)ami-no]cyclohexyl}-1H-pyrazole-4-carboxamide], for which the IC50 turned out to be 2 nM. As for `COCC(C)N[C@H]1CCC(n2cc(C(N)=O)c(Nc3ccc(Cl)cc3)n2)[C@@H](C#N)C1` (single isomer, unassigned) [Example 28-237, 3-[(4-chlorophenyl)amino]-1-[(1S,2S,4S or 1R,2R,4R)-2-cyano-4-{[(1S)-2-methoxy-1-methylethyl]amino}cyclohexyl]-1H-pyrazole-4-carboxamide], the IC50 is 1 nM. For `COCC(C)N[C@H]1CCC(n2cc(C(N)=O)c(Nc3ccc(Cl)cc3)n2)[C@@H](C#N)C1` (single isomer, unassigned) [Example 28-238, 3-[(4-chlorophenyl)amino]-1-[(1S,2S,4S or 1R,2R,4R)-2-cyano-4-{[(1S)-2-methoxy-1-methylethyl]amino}cyclohexyl]-1H-pyrazole-4-carboxamide], the half-inhibitory concentration (IC50) came to 2 nM. As for `CC(C)(O)C1CC(CN[C@H]2CC[C@@H](n3cc(C(N)=O)c(Nc4ccc(C(F)(F)F)cc4)n3)[C@H](C#N)C2)C1` (single isomer, unassigned) [Example 30-4, 1-[(1R,2R,4S or 1S,2S,4R)-2-cyano-4-({[3-(1-hydroxy-1-methylethyl)cyclo-butyl]methyl}amino)cyclo-hexyl]-3-{[4-(trifluoro-methyl)phenyl]amino}-1H-pyrazole-4-carboxamide], the IC50 worked out at 1 nM. In the case of `CC(C)CN(CC1CC1)[C@H]1CC[C@@H](n2cc(C(N)=O)c(Nc3ccc(C(F)(F)F)cc3)n2)[C@H](C#N)C1` (single isomer, unassigned) [Example 30-9, l-{(1R,2R,4S or 1S,2S,4R)-2-cyano-4-[(cyclopropylmethyl)(2-methylpropyl)amino]cyclo-hexyl}-3-{[4-(trifluoromethyl)phenyl]amino}-1H-pyrazole-4-carboxamide] it was 16 nM; in that of `C=C[C@]1(O)CC[C@H](n2cc(C(N)=O)c(Nc3ccc(Cl)cc3)n2)[C@@H](C#N)C1` (single isomer, unassigned) [Example 32-5, 3-[(4-chlorophenyl)amino]-1-[(1S,2S,4S or 1R,2R,4R)-2-cyano-4-ethenyl-4-hydroxycyclohexyl]-1H-pyrazole-4-carboxamide], 3 nM. `C[C@@]1(O)CC[C@H](n2cc(C(N)=O)c(Nc3ccc(Cl)c(F)c3)n2)[C@@H](C#N)C1` (single isomer, unassigned) [Example 32-7, 3-[(4-chloro-3-fluorophenyl)amino]-1-[(1S,2S,4R or 1R,2R,4S)-2-cyano-4-hydroxy-4-methylcyclohexyl]-1H-pyrazole-4-carboxamide]: the half-maximal inhibitory concentration (IC50) worked out at 5 nM. The same measure for `C[C@]1(O)CC[C@H](n2cc(C(N)=O)c(Nc3ccc(Cl)cc3)n2)[C@@H](C#N)C1` (single isomer, unassigned) [Example 32-10, 3-[(4-chlorophenyl)amino]-1-[(1S,2S,4S or 1R,2R,4R)-2-cyano-4-hydroxy-4-methylcyclohexyl]-1H-pyrazole-4-carboxamide]: 1 nM. With `N#C[C@H]1C[C@](O)(C2CC2)CC[C@@H]1n1cc(C(N)=O)c(Nc2ccc(Cl)cc2)n1` (single isomer, unassigned) [Example 32-12, 3-[(4-chlorophenyl)aminol-1-[(1S,2S,4S or 1R,2R,4R)-2-cyano-4-cyclopropyl-4-hydroxycyclohexyl]-1H-pyrazole-4-carboxamide], the IC50 stood at 1 nM. In the case of `C[C@@]1(O)CC[C@H](n2cc(C(N)=O)c(Nc3ccc(Cl)cc3)n2)[C@@H](C#N)C1` (single isomer, unassigned) [Example 32-13, 3-[(4-chlorophenyl)amino]-1-[(1S,2S,4R or 1R,2R,4S)-2-cyano-4-hydroxy-4-methylcyclohexyl]-1H-pyrazole-4-carboxamide] it was 3 nM; in that of `N#C[C@H]1C[C@@](O)(C2CC2)CC[C@@H]1n1cc(C(N)=O)c(Nc2ccc(Cl)cc2)n1` (single isomer, unassigned) [Example 32-14, 3-[(4-chlorophenyl)amino]-1-[(1S,2S,4R or 1R,2R,4S)-2-cyano-4-cyclopropyl-4-hydroxycyclohexyl]-1H-pyrazole-4-carboxamide], 15 nM. In the case of `C=C[C@@]1(O)CC[C@H](n2cc(C(N)=O)c(Nc3ccc(Cl)cc3)n2)[C@@H](C#N)C1` (single isomer, unassigned) [Example 32-16, 3-[(4-chlorophenyl)amino]-1-[(1S,2S,4R or 1R,2R,4S)-2-cyano-4-ethenyl-4-hydroxycyclohexyl]-1H-pyrazole-4-carboxamide] it was 0.85 nM; in that of `C[C@]1(O)CC[C@H](n2cc(C(N)=O)c(Nc3ccc(Cl)c(F)c3)n2)[C@@H](C#N)C1` (single isomer, unassigned) [Example 32-17, 3-[(4-chloro-3-fluorophenyl)amino]-1-[(1S,2S,4S or 1R,2R,4R)-2-cyano-4-hydroxy-4-methylcyclohexyl]-1H-pyrazole-4-carboxamide], 2 nM; in that of `N#C[C@H]1C[C@@H](O)CC[C@@H]1n1cc(C(N)=O)c(Nc2ccc(Cl)c(F)c2)n1` (single isomer, unassigned) [Example 33-3, 3-[(4-chloro-3-fluorophenyl)amino]-1-[(1S,2S,4S or 1R,2R,4R)-2-cyano-4-hydroxycyclohexyl]-1H-pyrazole-4-carboxamide], 2 nM. The same measure for `CC(C)(CF)c1ccc(Nc2nn([C@H]3CC[C@H](O)C[C@@H]3C#N)cc2C(N)=O)cc1` (single isomer, unassigned) [Example 33-21, 1-[(1S,2S,4S or 1R,2R,4R)-2-cyano-4-hydroxycyclohexyl]-3-{[4-(2-fluoro-1,1-dimethylethyl)phenyl]amino}-1H-pyrazole-4-carboxamide]: 1 nM; for `N#C[C@H]1C[C@@H](C(=O)N2CC(F)(F)C2)CC[C@@H]1n1cc(C(N)=O)c(Nc2ccc(Cl)cc2)n1` (single isomer, unassigned) [Example 35-6, 3-[(4-chlorophenyl)amino]-1-{(1S,2S,4S or 1R,2R,4R)-2-cyano-4-[(3,3-difluoroazetidin-1-yl)carbonyl]cyclohexyl}-1H-pyrazole-4-carboxamide]: 62 nM; for `N#C[C@H]1C[C@@H](C(=O)N[C@H](C2CC2)C(F)(F)F)CC[C@@H]1n1cc(C(N)=O)c(Nc2ccc(Cl)cc2)n1` (single isomer, unassigned) [Example 35-14, 3-[(4-chlorophenyl)amino]-1-[(1S,2S,4S or 1R,2R,4R)-2-cyano-4-{[(1R)-1-cyclopropyl-2,2,2-trifluoroethyl]carbamoyl}cyclohexyl]-1H-pyrazole-4-carboxamide]: 9 nM.

`N#C[C@@H]1C[C@H](C(=O)N2CC(F)(F)C2)CC[C@H]1n1cc(C(N)=O)c(Nc2ccc(Cl)cc2)n1` (single isomer, unassigned) [Example 35-15, 3-[(4-chlorophenyl)amino]-1-{(1R,2R,4R or 1S,2S,4S)-2-cyano-4-[(3,3-difluoroazetidin-1-yl)carbonyl]cyclohexyl}-1H-pyrazole-4-carboxamide]: the 50% inhibitory concentration (IC50) was 3 nM. In the case of `N#C[C@@H]1C[C@H](C(=O)N[C@@H](C2CC2)C(F)(F)F)CC[C@H]1n1cc(C(N)=O)c(Nc2ccc(Cl)cc2)n1` (single isomer, unassigned) [Example 35-16, 3-[(4-chlorophenyl)amino]-1-[(1R,2R,4R or 1S,2S,4S)-2-cyano-4-{[(1S)-1-cyclopropyl-2,2,2-trifluoroethyl]carbamoyl}cyclohexyl]-1H-pyrazole-4-carboxamide] it was 9 nM. With `N#C[C@H]1C[C@@H](C(=O)N[C@@H](C2CC2)C(F)(F)F)CC[C@@H]1n1cc(C(N)=O)c(Nc2ccc(Cl)cc2)n1` (single isomer, unassigned) [Example 35-24, 3-[(4-chlorophenyl)amino]-1-[(1S,2S,4S or 1R,2R,4R)-2-cyano-4-{[(1S)-1-cyclopropyl-2,2,2-trifluoroethyl]carbamoyl}cyclohexyl]-1H-pyrazole-4-carboxamide], the IC50 was 180 nM.

With `N#C[C@@H]1C[C@H](C(=O)N[C@H](C2CC2)C(F)(F)F)CC[C@H]1n1cc(C(N)=O)c(Nc2ccc(Cl)cc2)n1` (single isomer, unassigned) [Example 35-25, 3-[(4-chlorophenyl)amino]-1-[(1R,2R,4R or 1S,2S,4S)-2-cyano-4-{[(1R)-1-cyclopropyl-2,2,2-trifluoroethyl]carbamoyl}cyclohexyl]-1H-pyrazole-4-carboxamide], the IC50 worked out at 21 nM.
